Experimental data from publication PMC3226715 (Chemical research in toxicology, 2011).

How the values were obtained:
GRd = details: rat renal proximal tubule cells treated with DCVC; cited from earlier work
MDH = details: rat liver mitochondria in the presence of DCVC; cited from earlier work
[1] = Half-life in the presence of GSH; assay type: physicochemical; details: 0.31 mM compound, 1.02 mM GSH (3:10 molar ratio), phosphate buffer pH 7.4, 37°C
[2] = biological target: glutathione reductase (GRd) from baker's yeast (Saccharomyces cerevisiae, UniProt P41921); test: Covalent modification of the model enzyme GRd, anti-biotin immunoblot; assay type: binding; details: 10 µM NB-DCVCS, 3 h, 37°C, 0.5 mg/mL protein
glutathione reductase (GRd) from baker's yeast, sequence (P41921 whole entry): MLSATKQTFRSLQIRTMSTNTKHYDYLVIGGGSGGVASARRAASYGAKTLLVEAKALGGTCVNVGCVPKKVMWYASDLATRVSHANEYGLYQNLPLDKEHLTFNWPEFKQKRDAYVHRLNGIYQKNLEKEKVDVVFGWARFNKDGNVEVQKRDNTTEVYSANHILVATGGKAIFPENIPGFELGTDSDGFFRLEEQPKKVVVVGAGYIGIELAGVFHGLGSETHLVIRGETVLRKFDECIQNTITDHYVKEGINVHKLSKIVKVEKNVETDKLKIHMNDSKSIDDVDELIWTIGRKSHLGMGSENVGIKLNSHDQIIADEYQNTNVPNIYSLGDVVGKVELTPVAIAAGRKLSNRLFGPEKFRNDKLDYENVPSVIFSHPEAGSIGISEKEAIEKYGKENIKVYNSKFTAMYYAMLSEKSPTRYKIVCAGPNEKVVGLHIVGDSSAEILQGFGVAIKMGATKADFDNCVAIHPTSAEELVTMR

[3] = biological target: T1, porcine heart mitochondrial malate dehydrogenase (MDH) (Sus scrofa, UniProt P00346); test: Covalent modification of the model enzyme MDH, anti-biotin immunoblot; assay type: binding; details: 10 µM NB-DCVCS, 3 h, 37°C, 0.5 mg/mL protein
T1 sequence (P00346 25-338): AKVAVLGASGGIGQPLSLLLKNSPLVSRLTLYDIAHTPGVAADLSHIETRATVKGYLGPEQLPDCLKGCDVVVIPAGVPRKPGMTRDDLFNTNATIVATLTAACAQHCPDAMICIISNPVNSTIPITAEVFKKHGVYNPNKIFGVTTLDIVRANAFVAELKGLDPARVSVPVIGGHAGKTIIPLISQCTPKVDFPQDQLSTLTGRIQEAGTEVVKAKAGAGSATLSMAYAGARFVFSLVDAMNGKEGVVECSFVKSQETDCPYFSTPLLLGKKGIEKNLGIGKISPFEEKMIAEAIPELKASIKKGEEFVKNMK

[4] = system: rat kidney cytosol proteins; test: Binding of NB-DCVCS to kidney cytosolic proteins, anti-biotin immunoblot; design: species or system male Sprague Dawley rat; details: 6 µg/µL cytosol, 3 h, 37°C
[5] = Stability in isolated rat plasma; assay type: in vitro ADME, male Sprague-Dawley rat; details: 50 µM, 37°C
[6] = Stability in isolated rat whole blood; assay type: in vitro ADME, male Sprague-Dawley rat; details: 50 µM, 37°C
[7] = Stability in phosphate buffer pH 7.4; assay type: physicochemical
[8] = Stability under acidic conditions; assay type: physicochemical; details: 0.2 M HCl/KCl buffer pH 2, several hours at 37°C (data not shown)

Row | SMILES | GRd activity (GRd) | MDH activity (MDH) | half-life in the presence of GSH [1] [min] | modification of glutathione reductase (immunoblot) [2] | modification of malate dehydrogenase (immunoblot) [3] | immunoblot signal of modified kidney cytosol proteins ([4]; 312.5 nM to 5 µM NB-DCVCS) | NB-DCVCS concentration at which modified proteins were detected [4] [nM] | DCVCS formation from NB-DCVCS (amide bond cleavage) in plasma [5] | half-life in plasma [5] [min] | detection in plasma after 150 min ([5]; after 150 min) | DCVCS formation from NB-DCVCS (amide bond cleavage) in whole blood [6] | half-life in whole blood [6] [min] | detection in whole blood after 150 min ([6]; after 150 min) | time stable in phosphate buffer ([7]; phosphate buffer, 37°C) | stability in phosphate buffer pH 7.4 ([7]; several hours at 37°C (data not shown)) | stability under acidic conditions [8]
1 | N[C@@H](CSC(Cl)=CCl)C(=O)O [DCVC] | inhibited | inhibited | – | – | – | – | – | – | – | – | – | – | – | – | – | –
2 | O=C(CCCC[C@@H]1SC[C@@H]2NC(=O)N[C@@H]21)N[C@@H](C[S+]([O-])C(Cl)=CCl)C(=O)O (stereo partly shown) [NB-DCVCS] | – | – | 39.6 | extensively modified | extensively modified | concentration-dependent increases in signal and the number of bands | ≥ 625 | No DCVCS formation was observed | 40 | not detectable | No DCVCS formation was observed | 68.5 | not detectable | greater than 120 min | stable | stable
